In the NIST ThermoML archive (doi:10.1021/je400065j):
Numbers after ± are expanded uncertainties.

How the values were obtained:
[1] = Liquid, Closed cell (Static) method
[2] = refractive index (Na D-line) (dimensionless); settings: 293.15 K; 101.33 kPa; Liquid; Standard Abbe refractometry

SMILES	vapor or sublimation pressure ([1]; 383.3 K) [kPa]	vapor or sublimation pressure ([1]; 398.1 K) [kPa]	vapor or sublimation pressure ([1]; 398.2 K) [kPa]	vapor or sublimation pressure ([1]; 413.2 K) [kPa]	refractive index [2]
CCC(C)=O [butanone]	245.6 ± 1.3	358.5 ± 1.5	358.5 ± 1.5	506.6 ± 1.9	1.3788 ± 0.0007
CCO [ethanol]	315.6 ± 1.7		498.3 ± 2.2	757 ± 3	1.3618 ± 0.0007
CO [methanol]	480.7 ± 2.3	733.7 ± 3.1		1086 ± 4.1	1.3287 ± 0.0007
